Legend:
LNCaP [1] = assay: Antiproliferative activity against human LNCaP cells assessed as reduction in cel viability after 72 hrs by MTT assay; type: functional, cell-based
DU-145 = assay: Antiproliferative activity against human DU-145 cells assessed as reduction in cel viability after 72 hrs by MTT assay; type: functional, cell-based; conditions: DU-145, 72 h
LNCaP [2] = assay: Antitumour activity against human LNCaP cells xenografted in BALB/c nude mouse assessed as reduction in tumour weight at 45 mg/kg, po administered daily for 21 days relative to control; type: functional; conditions: time 21 day
LNCaP [3] = assay: Antitumour activity against human LNCaP cells xenografted in BALB/c nude mouse assessed as decrease in PSA level at 45 mg/kg, po administered daily for 21 days by ELISA relative to control; type: functional; parameters: scale not given: the % may be the effect or the level left; conditions: time 21 day
[4] = Antagonist activity at GABAA receptor (unknown origin) by radioligand binding assay
[5] = Half life in human liver microsomes at 10 uM; type: ADME, Microsome
[6] = Stability in human liver microsomes assessed as parent compound remaining at 10 uM; type: ADME, Microsome; conditions: read-out: Stabilty

Compound: N#Cc1ncc(N2C(=O)C3Cc4cc(F)c(C(=O)NC5CCCCC5)cc4CN3C2=S)cc1C(F)(F)F (stereo unspecified)
- IC50 (LNCaP [1]): 84.7 µM
- IC50 (DU-145): 67.6 µM

Compound: CCC(=O)Nc1cc2c(cc1F)CC1C(=O)N(c3cnc(C#N)c(C(F)(F)F)c3)C(=S)N1C2 (stereo unspecified)
- IC50 (LNCaP [1]): 27.7 µM
- IC50 (DU-145): > 100 µM

Compound: CNC(=O)c1cc2c(cc1F)CC1C(=O)N(c3cnc(C#N)c(C(F)(F)F)c3)C(=S)N1C2 (stereo unspecified)
- IC50 (LNCaP [1]): 43.8 µM
- IC50 (DU-145): 67.4 µM

Compound: N#Cc1ncc(N2C(=O)C3Cc4ccccc4CN3C2=S)cc1C(F)(F)F (stereo unspecified)
- IC50 (LNCaP [1]): 21.6 µM
- IC50 (DU-145): > 100 µM

Compound: CS(=O)(=O)Nc1ccc2c(c1)CCC1C(=O)N(c3cnc(C#N)c(C(F)(F)F)c3)C(=S)N21 (stereo unspecified)
- IC50 (LNCaP [1]): > 100 µM
- IC50 (DU-145): > 100 µM

Compound: CCCC(=O)Nc1ccc2c(c1)CN1C(=S)N(c3cnc(C#N)c(C(F)(F)F)c3)C(=O)C1C2 (stereo unspecified)
- IC50 (LNCaP [1]): 34.2 µM
- IC50 (DU-145): > 100 µM

Compound: CS(=O)(=O)Nc1cc2c(cc1F)CC1C(=O)N(c3cnc(C#N)c(C(F)(F)F)c3)C(=S)N1C2 (stereo unspecified)
- IC50 (LNCaP [1]): 79 µM
- IC50 (DU-145): > 100 µM

Compound: CCCCOc1ccc2c(c1)CN1C(=S)N(c3cnc(C#N)c(C(F)(F)F)c3)C(=O)C1C2 (stereo unspecified)
- IC50 (LNCaP [1]): 20 µM
- IC50 (DU-145): > 100 µM

Compound: N#Cc1ncc(N2C(=O)C3Cc4ccc([N+](=O)[O-])cc4CN3C2=S)cc1C(F)(F)F (stereo unspecified)
- IC50 (LNCaP [1]): 75.7 µM
- IC50 (DU-145): > 100 µM

Compound: CCCCS(=O)(=O)Nc1ccc2c(c1)N1C(=S)N(c3cnc(C#N)c(C(F)(F)F)c3)C(=O)C1CC2 (stereo unspecified)
- IC50 (LNCaP [1]): 48.7 µM
- IC50 (DU-145): 83.9 µM

Compound: CCCCS(=O)(=O)Nc1ccc2c(c1)CN1C(=S)N(c3cnc(C#N)c(C(F)(F)F)c3)C(=O)C1C2 (stereo unspecified)
- IC50 (LNCaP [1]): 84.1 µM
- IC50 (DU-145): 84.4 µM

Compound: CCOC(=O)Nc1ccc2c(c1)CCC1C(=O)N(c3cnc(C#N)c(C(F)(F)F)c3)C(=S)N21 (stereo unspecified)
- IC50 (LNCaP [1]): 23.7 µM
- IC50 (DU-145): > 100 µM

Compound: CNC(=O)c1ccc2c(c1)CN1C(=S)N(c3cnc(C#N)c(C(F)(F)F)c3)C(=O)C1C2 (stereo unspecified)
- IC50 (LNCaP [1]): 36.7 µM
- IC50 (DU-145): 83.6 µM

Compound: CCOC(=O)Nc1ccc2c(c1)CN1C(=S)N(c3cnc(C#N)c(C(F)(F)F)c3)C(=O)C1C2 (stereo unspecified)
- IC50 (LNCaP [1]): 12.2 µM
- IC50 (DU-145): > 100 µM

Compound: CCNC(=O)c1cc2c(cc1F)CC1C(=O)N(c3cnc(C#N)c(C(F)(F)F)c3)C(=S)N1C2 (stereo unspecified)
- IC50 (LNCaP [1]): 32.3 µM
- IC50 (DU-145): 91.4 µM

Compound: N#Cc1ncc(N2C(=O)C3Cc4ccc(N)cc4CN3C2=S)cc1C(F)(F)F (stereo unspecified)
- IC50 (LNCaP [1]): 44.7 µM
- IC50 (DU-145): > 100 µM

Compound: CC(O)CNC(=O)c1cc2c(cc1F)CC1C(=O)N(c3cnc(C#N)c(C(F)(F)F)c3)C(=S)N1C2 (stereo unspecified)
- IC50 (LNCaP [1]): 47.5 µM
- IC50 (DU-145): 72.2 µM

Compound: COc1ccc2c(c1)CN1C(=S)N(c3cnc(C#N)c(C(F)(F)F)c3)C(=O)C1C2 (stereo unspecified)
- IC50 (LNCaP [1]): 25.9 µM
- IC50 (DU-145): > 100 µM

Compound: COC(=O)c1cc2c(cc1F)CC1C(=O)N(c3cnc(C#N)c(C(F)(F)F)c3)C(=S)N1C2 (stereo unspecified)
- IC50 (LNCaP [1]): 55.5 µM
- IC50 (DU-145): 86.2 µM

Compound: CC(=O)Nc1ccc2c(c1)N1C(=S)N(c3cnc(C#N)c(C(F)(F)F)c3)C(=O)C1CC2 (stereo unspecified)
- IC50 (LNCaP [1]): 89.7 µM
- IC50 (DU-145): > 100 µM

Compound: N#Cc1ncc(N2C(=O)C3Cc4cc(F)c(C(=O)O)cc4CN3C2=S)cc1C(F)(F)F (stereo unspecified)
- IC50 (LNCaP [1]): > 100 µM
- IC50 (DU-145): > 100 µM

Compound: N#Cc1ncc(N2C(=O)C3Cc4cc(F)c([N+](=O)[O-])cc4CN3C2=S)cc1C(F)(F)F (stereo unspecified)
- IC50 (LNCaP [1]): 29 µM
- IC50 (DU-145): 83.4 µM

Compound: N#Cc1ncc(N2C(=O)C3Cc4ccc(C(=O)NC5CCCCC5)cc4CN3C2=S)cc1C(F)(F)F (stereo unspecified)
- IC50 (LNCaP [1]): 72.3 µM
- IC50 (DU-145): 92.4 µM

Compound: CS(=O)(=O)Nc1ccc2c(c1)CN1C(=S)N(c3cnc(C#N)c(C(F)(F)F)c3)C(=O)C1C2 (stereo unspecified)
- IC50 (LNCaP [1]): 90.2 µM
- IC50 (DU-145): > 100 µM

Compound: CC(=O)Nc1ccc2c(c1)CN1C(=S)N(c3cnc(C#N)c(C(F)(F)F)c3)C(=O)C1C2 (stereo unspecified)
- IC50 (LNCaP [1]): 23.1 µM
- IC50 (DU-145): 54.1 µM

Compound: CCOC(=O)Nc1ccc2c(c1)N1C(=S)N(c3cnc(C#N)c(C(F)(F)F)c3)C(=O)C1CC2 (stereo unspecified)
- IC50 (LNCaP [1]): 35.7 µM
- IC50 (DU-145): 90.3 µM

Compound: CCC(=O)Nc1ccc2c(c1)N1C(=S)N(c3cnc(C#N)c(C(F)(F)F)c3)C(=O)C1CC2 (stereo unspecified)
- IC50 (LNCaP [1]): 48.8 µM
- IC50 (DU-145): > 100 µM

Compound: N#Cc1ncc(N2C(=O)C3Cc4ccc(C(=O)NCCO)cc4CN3C2=S)cc1C(F)(F)F (stereo unspecified)
- IC50 (LNCaP [1]): 29.1 µM
- IC50 (DU-145): 83.9 µM

Compound: CCCCNC(=O)c1cc2c(cc1F)CC1C(=O)N(c3cnc(C#N)c(C(F)(F)F)c3)C(=S)N1C2 (stereo unspecified)
- IC50 (LNCaP [1]): 16.3 µM
- IC50 (DU-145): 93.8 µM

Compound: CCCC(=O)Nc1ccc2c(c1)N1C(=S)N(c3cnc(C#N)c(C(F)(F)F)c3)C(=O)C1CC2 (stereo unspecified)
- IC50 (LNCaP [1]): 46 µM
- IC50 (DU-145): 97.8 µM

Compound: CS(=O)(=O)Nc1ccc2c(c1)N1C(=S)N(c3cnc(C#N)c(C(F)(F)F)c3)C(=O)C1CC2 (stereo unspecified)
- IC50 (LNCaP [1]): > 100 µM
- IC50 (DU-145): > 100 µM

Compound: CCC(=O)Nc1ccc2c(c1)CCC1C(=O)N(c3cnc(C#N)c(C(F)(F)F)c3)C(=S)N21 (stereo unspecified)
- IC50 (LNCaP [1]): 39.9 µM
- IC50 (DU-145): > 100 µM

Compound: CCOc1ccc2c(c1)CN1C(=S)N(c3cnc(C#N)c(C(F)(F)F)c3)C(=O)C1C2 (stereo unspecified)
- IC50 (LNCaP [1]): 65.9 µM
- IC50 (DU-145): 91.7 µM

Compound: CCCCS(=O)(=O)Nc1cc2c(cc1F)CC1C(=O)N(c3cnc(C#N)c(C(F)(F)F)c3)C(=S)N1C2 (stereo unspecified)
- IC50 (LNCaP [1]): 102 µM
- IC50 (DU-145): > 100 µM

Compound: CCCNC(=O)c1cc2c(cc1F)CC1C(=O)N(c3cnc(C#N)c(C(F)(F)F)c3)C(=S)N1C2 (stereo unspecified)
- IC50 (LNCaP [1]): 20.1 µM
- IC50 (DU-145): 92.5 µM

Compound: CCCCS(=O)(=O)Nc1ccc2c(c1)CCC1C(=O)N(c3cnc(C#N)c(C(F)(F)F)c3)C(=S)N21 (stereo unspecified)
- IC50 (LNCaP [1]): 54.7 µM
- IC50 (DU-145): 90.1 µM

Compound: CCOC(=O)CCCOc1ccc2c(c1)CN1C(=S)N(c3cnc(C#N)c(C(F)(F)F)c3)C(=O)C1C2 (stereo unspecified)
- IC50 (LNCaP [1]): 17 µM
- IC50 (DU-145): > 100 µM

Compound: N#Cc1ncc(N2C(=O)C3Cc4cc(Br)c(O)c(Br)c4CN3C2=S)cc1C(F)(F)F (stereo unspecified)
- IC50 (LNCaP [1]): 60.4 µM
- IC50 (DU-145): 81.1 µM

Compound: CCC(=O)Nc1ccc2c(c1)CN1C(=S)N(c3cnc(C#N)c(C(F)(F)F)c3)C(=O)C1C2 (stereo unspecified)
- IC50 (LNCaP [1]): 22.9 µM
- IC50 (DU-145): 81.1 µM

Compound: COc1c(Br)cc2c(c1Br)CN1C(=S)N(c3cnc(C#N)c(C(F)(F)F)c3)C(=O)C1C2 (stereo unspecified)
- IC50 (LNCaP [1]): 85.9 µM
- IC50 (DU-145): 96.3 µM

Compound: CC(=O)Nc1ccc2c(c1)CCC1C(=O)N(c3cnc(C#N)c(C(F)(F)F)c3)C(=S)N21 (stereo unspecified)
- IC50 (LNCaP [1]): 41.2 µM
- IC50 (DU-145): > 100 µM

Compound: CC(CO)NC(=O)c1ccc2c(c1)CN1C(=S)N(c3cnc(C#N)c(C(F)(F)F)c3)C(=O)C1C2 (stereo unspecified)
- IC50 (LNCaP [1]): 44.9 µM
- IC50 (DU-145): 88 µM

Compound: N#Cc1ncc(N2C(=O)C3Cc4ccc(C(=O)O)cc4CN3C2=S)cc1C(F)(F)F (stereo unspecified)
- IC50 (LNCaP [1]): > 100 µM
- IC50 (DU-145): > 100 µM

Compound: CCCNC(=O)c1ccc2c(c1)CN1C(=S)N(c3cnc(C#N)c(C(F)(F)F)c3)C(=O)C1C2 (stereo unspecified)
- IC50 (LNCaP [1]): 18.1 µM
- IC50 (DU-145): 90.4 µM

Compound: CC(=O)Nc1cc2c(cc1F)CC1C(=O)N(c3cnc(C#N)c(C(F)(F)F)c3)C(=S)N1C2 (stereo unspecified)
- IC50 (LNCaP [1]): 28.3 µM
- IC50 (DU-145): > 100 µM

Compound: CCNC(=O)c1ccc2c(c1)CN1C(=S)N(c3cnc(C#N)c(C(F)(F)F)c3)C(=O)C1C2 (stereo unspecified)
- IC50 (LNCaP [1]): 29.3 µM
- IC50 (DU-145): 53.2 µM

Compound: N#Cc1ncc(N2C(=O)C3Cc4cc(F)c(N)cc4CN3C2=S)cc1C(F)(F)F (stereo unspecified)
- IC50 (LNCaP [1]): 32.1 µM
- IC50 (DU-145): > 100 µM

Compound: COC(=O)c1ccc2c(c1)CN1C(=S)N(c3cnc(C#N)c(C(F)(F)F)c3)C(=O)C1C2 (stereo unspecified)
- IC50 (LNCaP [1]): 58.4 µM
- IC50 (DU-145): 75.5 µM

Compound: CC(CO)NC(=O)c1cc2c(cc1F)CC1C(=O)N(c3cnc(C#N)c(C(F)(F)F)c3)C(=S)N1C2 (stereo unspecified)
- IC50 (LNCaP [1]): 34.2 µM
- IC50 (DU-145): 71.3 µM

Compound: CNC(=O)c1ccc(N2C(=S)N(c3ccc(C#N)c(C(F)(F)F)c3)C(=O)C2(C)C)cc1F [ENZALUTAMIDE]
- IC50 (LNCaP [1]): 16.5 µM
- IC50 (DU-145): 49.3 µM
- TGI (LNCaP [2]): 68%
- Activity (LNCaP [3]): 57%
- IC50 [4]: 2.7 µM
- half-life at 10 µM [5]: 6.69 h
- remaining at 10 µM [6]: 90.3%

Compound: CCCCNC(=O)c1ccc2c(c1)CN1C(=S)N(c3cnc(C#N)c(C(F)(F)F)c3)C(=O)C1C2 (stereo unspecified)
- IC50 (LNCaP [1]): 11.6 µM
- IC50 (DU-145): 89.4 µM

Compound: CCCC(=O)Nc1cc2c(cc1F)CC1C(=O)N(c3cnc(C#N)c(C(F)(F)F)c3)C(=S)N1C2 (stereo unspecified)
- IC50 (LNCaP [1]): 27.9 µM
- IC50 (DU-145): > 100 µM

Compound: CCCC(=O)Nc1ccc2c(c1)CCC1C(=O)N(c3cnc(C#N)c(C(F)(F)F)c3)C(=S)N21 (stereo unspecified)
- IC50 (LNCaP [1]): 32.5 µM
- IC50 (DU-145): 89.7 µM

— ChEMBL document CHEMBL4680224, “Discovery of pyridine tetrahydroisoquinoline thiohydantoin derivatives with low blood-brain barrier penetration as the androgen receptor antagonists” (Eur J Med Chem, 2020)
